Read-outs that look alike come from different tables or passages of the source.
Experiments:
[1] = molecular target: human recombinant 5-HT2C receptor (Homo sapiens (Human), UniProt P28335); experiment: 5-HT2C receptor binding inhibition test ([3H]-Mesulergine); settings: Jump-In HEK cell membrane, 37° C. 2 hours
How it was run: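 Radioligand displacement on HEK membranes expressing human recombinant 5-HT2C (0.5 μg/well), [3H]-mesulergine near its Kd, in pH 7.4 Tris-HCl buffer with NaCl, MgCl2, KCl, CaCl2 and 0.1% BSA, 2 h at 37° C. Bound radioactivity measured after GF/B filtration; non-specific binding defined with 500 μmol/L serotonin, Ki from dose-response curve.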

[2] = molecular target: human ether-a-go-go related gene (hERG) channel (Homo sapiens (Human), UniProt Q12809); experiment: hERG test (FluxOR II potassium channel assay, FLIPR); format: cell-based; settings: CHO cells expressing hERG channel, thallium flux fluorescence, 10 minutes
Method: Test Example 3: hERG Test
For the purpose of evaluating risk of an electrocardiogram QT interval prolongation of the compound of the present invention, effects of the compound are studied by evaluating the activity of potassium channel using CHO cells expressing human ether-a-go-go related gene (hERG) channel.
Evaluation is performed using a FluxORII Green Potassium IonCgannel Assay kit
(Invitrogen: Molecular Probes).
Cells are seeded in a 384-assay plate (8000 cells/well/40 μL) and incubated (37° C., […] overnight. After replacing the medium with a Wash buffer (1×HBSS, 20 mM HEPES) with a microplate washer, a fluorescent indicator is added to the medium and allowed to incubate (37° C., 5% CO2) for 1 hour for incorporation of the fluorescent indicator into cells.
A cell plate is placed on a cell-based kinetic assay system FLIPR (Molecular Devices, LLC.), and the compound is added to the cells so as to have a desired concentration and reacted for 10 minutes. When a mixed solution of potassium and thallium as a stimulator is added thereto, the potassium channel is opened, and thallium that flowed into the cells binds to the fluorescent indicator, so that the intracellular fluorescence signal increases, and the potassium channel current is detected as a fluorescence signal. For the inhibition rate at each concentration, the signal intensity when E-4031 is added to cells at a final concentration of 10.3 μmol/L is defined as an inhibition rate of 100%, and the signal intensity when DMSO is added to cells at a final concentration of 0.5% is defined as an inhibition rate of 0%. Then, the inhibition rate is calculated from the signal intensity at each concentration. IC50 is calculated from the inhibition rate at each concentration.

[3] = read-out: human serotonin 5-HT2C receptor binding activity Ki

human recombinant 5-HT2C receptor, sequence (P28335 33-458): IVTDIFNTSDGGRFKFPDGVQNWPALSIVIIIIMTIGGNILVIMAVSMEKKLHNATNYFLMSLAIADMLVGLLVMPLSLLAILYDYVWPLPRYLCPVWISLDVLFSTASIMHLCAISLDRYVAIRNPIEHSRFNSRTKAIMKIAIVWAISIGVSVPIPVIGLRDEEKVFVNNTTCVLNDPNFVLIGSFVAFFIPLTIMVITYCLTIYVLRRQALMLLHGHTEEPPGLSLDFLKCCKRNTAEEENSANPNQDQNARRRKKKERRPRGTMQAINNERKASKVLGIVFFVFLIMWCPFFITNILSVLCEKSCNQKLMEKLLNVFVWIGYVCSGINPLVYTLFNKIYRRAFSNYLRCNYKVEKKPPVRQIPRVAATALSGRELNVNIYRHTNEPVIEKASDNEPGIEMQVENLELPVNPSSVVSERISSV
human ether-a-go-go related gene (hERG) channel, sequence (Q12809 whole entry): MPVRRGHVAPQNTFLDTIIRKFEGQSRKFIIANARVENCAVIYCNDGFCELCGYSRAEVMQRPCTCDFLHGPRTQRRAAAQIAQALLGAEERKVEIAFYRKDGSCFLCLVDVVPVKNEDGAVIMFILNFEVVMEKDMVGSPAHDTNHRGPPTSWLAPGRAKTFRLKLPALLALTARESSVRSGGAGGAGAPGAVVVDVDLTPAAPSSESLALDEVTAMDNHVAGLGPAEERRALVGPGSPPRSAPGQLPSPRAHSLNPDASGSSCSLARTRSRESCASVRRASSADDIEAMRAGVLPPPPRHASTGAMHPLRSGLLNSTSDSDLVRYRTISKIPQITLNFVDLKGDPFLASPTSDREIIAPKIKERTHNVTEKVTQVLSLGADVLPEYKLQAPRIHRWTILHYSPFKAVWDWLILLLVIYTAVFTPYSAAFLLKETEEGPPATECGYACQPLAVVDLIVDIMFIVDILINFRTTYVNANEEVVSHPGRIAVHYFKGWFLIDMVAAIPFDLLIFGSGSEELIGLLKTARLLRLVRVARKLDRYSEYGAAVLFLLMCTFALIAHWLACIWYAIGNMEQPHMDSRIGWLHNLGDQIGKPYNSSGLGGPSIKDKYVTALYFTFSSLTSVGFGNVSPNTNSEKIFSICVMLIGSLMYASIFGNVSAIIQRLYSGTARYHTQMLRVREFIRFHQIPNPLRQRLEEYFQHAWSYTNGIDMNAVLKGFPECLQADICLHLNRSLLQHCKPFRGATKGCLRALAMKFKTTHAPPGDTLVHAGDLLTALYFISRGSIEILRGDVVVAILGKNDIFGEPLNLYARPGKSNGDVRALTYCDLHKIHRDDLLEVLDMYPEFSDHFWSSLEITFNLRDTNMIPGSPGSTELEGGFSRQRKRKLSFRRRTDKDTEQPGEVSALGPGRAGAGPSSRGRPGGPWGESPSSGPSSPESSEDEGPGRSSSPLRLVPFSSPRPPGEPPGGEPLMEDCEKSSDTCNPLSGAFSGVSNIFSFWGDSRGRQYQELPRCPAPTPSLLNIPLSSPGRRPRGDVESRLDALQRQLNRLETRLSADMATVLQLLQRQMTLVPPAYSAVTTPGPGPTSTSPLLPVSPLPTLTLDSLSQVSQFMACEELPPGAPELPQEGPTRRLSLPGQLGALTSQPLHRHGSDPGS

SMILES: CCCCOc1ccc(CN(Cc2coc(C)n2)C2=NOC3(CCN(C)CC3)N2)cc1F [Compound I-115]
- Ki [1, 3]: 0.469 nM
- IC50 [2]: > 52000 nM

SMILES: Cc1nc(CN(Cc2ccc(OCC(F)(F)C(F)(F)F)cc2F)C2=NOC3(CCN(C)CC3)N2)co1 [Compound I-104]
- Ki [1, 3]: 0.578 nM
- IC50 [2]: 20600 nM

SMILES: CCCCOc1ccc(CN(Cc2coc(C)n2)C2=NOC3(CCN(C)CC3)N2)c(F)c1 [Compound I-114]
- Ki [1, 3]: 0.543 nM
- IC50 [2]: > 52000 nM

SMILES: CCCCOc1ccc(CN(Cc2coc(CF)n2)C2=NOC3(CCN(C)CC3)N2)cc1 [Compound I-105]
- Ki [1, 3]: 1.13 nM
- IC50 [2]: 17900 nM

SMILES: CCCCOc1ccc(CN(Cc2coc(C)n2)C2=NOC3(CCN(C)CC3)N2)cc1 [Compound I-080]
- Ki ([1]; read-out: h-5-HT2C Ki): < 10 nM
- Ki [1, 3]: 0.579 nM
- IC50 [2]: > 52000 nM

SMILES: Cc1nc(CN(Cc2ccc(OCC(C)C)cc2F)C2=NOC3(CCN(C)CC3)N2)co1 [Compound I-128]
- Ki [1, 3]: 0.374 nM
- IC50 [2]: > 52000 nM

SMILES: CCCCOc1ccc(CN(Cc2cnn(C)n2)C2=NOC3(CCN(C)CC3)N2)cc1 [Compound I-113]
- Ki [1, 3]: 1.6 nM
- IC50 [2]: > 52000 nM

SMILES: Cc1nc(CN(Cc2ccc(CCC(F)(F)F)cc2)C2=NOC3(CCN(C)CC3)N2)co1 [Compound I-125]
- Ki [1, 3]: 0.694 nM
- IC50 [2]: 20000 nM

SMILES: CC(C)COc1ccc(CN(Cc2coc(CF)n2)C2=NOC3(CCN(C)CC3)N2)cc1 [Compound I-067]
- Ki ([1]; read-out: h-5-HT2C Ki): < 10 nM
- Ki [1, 3]: 0.95 nM
- IC50 [2]: 16300 nM

— patent publication US20250026765A1, “SPIROHETEROCYCLE DERIVATIVE HAVING SEROTONIN RECEPTOR BINDING ACTIVITY” (Shionogi & Co., Ltd., priority 2021, published 2025)
